Measured values taken from patent US20030198614A1, “Hair growers” (priority 2000, published 2003).

Tests used:
[1] = test system: C3H/He mice, whose hair cycle was at the telogen stage; assay: Hair regrowth effect test; format: in vivo; conditions: 0.1 ml once a day on shaved back, after 24 days, average of 6 mice
Method: The Compounds 1 to 5 described above were used as test materials. Each test material was dissolved in 70% ethanol aqueous solution and the solution was subjected to the application as a sample (test material concentration: 50 nM and 100 nM). 70% Ethanol was also used as a control sample.
The hair regrowth effect test was performed using C3H/He mice, whose hair cycle was at the telogen stage according to the method of Ogawa et. al. (Normal and Abnormal Epidermal Differentiation, Edited by M. Seiji and I. A. Bernstein, Pages 159-170, 1982, Todai Shuppan).
Namely, 6 mice were used in a group and their hair of the regions of back was shaved by hair clippers. 0.1 ml of sample was applied on the shaved regions once a day. After 24 days, the hair regrowth area was measured and the hair regrowth area rate was calculated based on the hair regrowth area with respect to the shaved area. The results are shown in Table 1 (expressed by average values).

[2] = Hair regrowth inducing effect test by cell cluster-accompanied culture method; format: cell-based; conditions: Homo sapiens, Human dermal papilla cell, 48 h, 2 days, Alamer Blue fluorescence, relative to negative control, read-out: Relative respiration level (%)
Method: The hair regrowth inducing effect was evaluated using, as an index, an increase in respiration level of a cell cluster formed under the coexistence of a normal human outer root sheath cell and a normal human dermal papilla cell.
Normal human dermal papilla cell (DP): A DP obtained by a primary culture from a head hair was subcultured three times in a 10% FBS-supplemented DMEM medium in a 75 cm^2 incubation flask coated with Type I collagen, and then stored while being frozen in a liquid nitrogen using a cell cryopreservation solution (Cellbanker II: DIA-IATRON).
Normal human outer root sheath cell (ORS): An ORS obtained by a primary culture from a head hair was subcultured three times in a SFM medium in a 75 cm^2 incubation flask coated with Type I collagen, and then stored while being frozen in a liquid nitrogen using Cellbanker II.
The DP and ORS cells stored as frozen were thawed, washed with an ice-cooled SFM medium, dispersed in the same medium and subjected to an accurate cell density measurement using a hemocytometer. Each cell density was adjusted at 5×10^4 cells/ml accurately, and the cell dispersions in equal volumes were combined under cooling with ice. 80 μl aliquots of the combined cell suspending SFM medium were inoculated into individual wells of a 96-well microplate (Sumilon celltight, spheroid 96U plate), and incubated for 2 days. The cell count in a single well upon inoculation was 2,000 cells for each of DP and ORS, thus 4,000 cells in total.
Each 80 μl of a test material-supplemented William's E(+) medium (William's E medium supplemented with 10 μg/ml transferrin, 10 ng/ml hydrocortisone, 10 μg/ml insulin and 10 ng/ml sodium selenite) was added to each well and incubated further for 2 days.
The test material-supplemented William's E(+) medium added to each well was prepared by dissolving the test material in ethanol at a concentration of 10 mM or 100 mM and adding to William's E(+) medium at 0.2% each. Accordingly, the final concentration of the test material in each well was 10 μM or 100 μM, and each final concentration of ethanol was 0.1%.
As a negative control, 80 μl of William's E(+) medium containing 0.2% ethanol was added (final concentration of ethanol was 0.1%).
Alamer Blue, SFM medium and William's E(+) medium were mixed in 2:1:1 ratio, warmed at 37° C. and then 40 μl aliquots were added to individual wells and allowed to react for 6 hours at 37° C. After completion of the reaction, 100 μl aliquots were taken from individual wells, and transferred to a white 96-well plate for fluorescence measurement (Opaque Plate).
A fluorometer (Labsystems Fluoroskan II) was used at the excitation wavelength of 544 nm and the fluorescent wavelength of 590 nm to measure the fluorescence intensity of each well, from which the fluorescent intensity of a cell-free reaction mixture (i.e., the reaction mixture treated similarly using a cell-free SFM medium) was subtracted to obtain a respiration level under each condition. From thus obtained respiration level, a relative respiration level(%) was calculated according to the following equation.
Relative respiration level(%)={Respiration level (test material)}/{Respiration level (negative control)}×100

[3] = test system: human hair follicle in the anagen stage; assay: Investigation of hair shaft elongation (organ culture of human hair follicle); format: cell-based; conditions: 1.0×10^-5 mol/L, 5-day incubation, 9 hair follicles per group
Method: A hair follicle in the anagen stage was isolated from a human scalp under a stereoscopic microscope observation, washed with “a medium prepared by adding penicillin, streptomycin and fungizone to Williams E medium (Gibco)” (hereinafter referred to as a (−) medium) and then examined for its length.
A medium obtained by supplementing the (−) medium further with 10 ng/ml hydrocortisone, 10 μg/ml insulin, 10 ng/ml sodium selenite and 10 μg/ml transferring (hereinafter ter referred to as a (+) medium) was dispensed in an aliquot of 1 ml per well into a 24-well microplate. The hair follicle described above was precipitated therein and incubated overnight at 37° C. in the presence of 5% CO2 (preincubation).
The elongation of the hair shaft in a hair follicle was determined by inspecting the microplate described above visually using an inverted microscope with a micrometer attached thereto.
A DMSO solution of a test material was added to a (−) medium for preparation. The final concentrations of the test material and DMSO were 1.0×10^−5 mol/L and 0.1%, respectively.
Only DMSO was added to a (−) medium at the final concentration of 0.1% for preparation.
The culture medium of the hair follicle groups described above was replaced each with the test materialcontaining medium or negative control medium, and the incubation was continued further for 5 days at 37° C. in the presence of 5% CO2. The length of each hair after 5-day incubation was measured, and the means were compared with each other.

[4] = test system: cultured human trichoepithelial cell; assay: Trichoepithelial cell growth promoting effect test; format: cell-based; conditions: 1.0×10^-6 mol/L, 2 days, Alamer Blue; negative control = 0, positive control (insulin + hydrocortisone) = 1
Method: According to the method described in JP-A-2000-63242, a cultured trichoepithelial cell of a human scalp was used to measure a trichoepithelial cell growth promoting effect.
From a human scalp obtained as a by-product of a surgical operation, a hair follicle at a anagen stage in a hair cycle was isolated mechanically under the observation by a stereoscopic microscope. This hair follicle at a anagen stage was treated in a Dulbecco's modified MEM (DMEM) supplemented with 1000 U/ml dispase and 0.2% collagenase for 30 minutes at 37° C. Adipose tissues, connective tissue root sheath and dermal papilla were removed therefrom using the tip of a syringe needle and the hair follicle was treated in a phosphate buffer containing 0.05% EDTA for 5 minutes at 37° C.
Subsequently, the hair follicle was placed on a culture dish coated with Type I collagen, and incubated in a KGM medium (serum-free keratinocyte growth medium). After incubation for 4 to 5 days, the culture medium was exchanged upon ensuring the adhesion of the hair follicle on the bottom face of the culture dish and the growth of the trichoepithelial cell, and thereafter the culture medium was exchanged every 2 days.
After the cell thus proliferated was treated in a phosphate buffer containing 0.05% trypsin and 0.02% EDTA for 5 minutes at 37° C., the reaction was quenched using an equal volume of 0.1% trypsin inhibitor and the cell was recovered by centrifugation (800×g, 5 minutes).
Subsequently, the cell was suspended in the serum-free culture medium described above, and inoculated at the density of 5000 cells/cm^2 onto a culture dish coated with Type I collagen. The culture medium was exchanged every 2 days until the cell became subconfluent. After treating the cell again in the phosphate buffer containing 0.05% trypsin and 0.02% EDTA for 5 minutes at 37° C., the reaction was quenched using an equal volume of 0.1% trypsin inhibitor and the cell was recovered by centrifugation (800×g, 5 minutes). The human trichoepithelial cell thus obtained was adjusted at the concentration of 100,000 cells/ml with a cell cryopreservation solution (Cellbanker: DIA-IATRON) added thereto, and dispensed into each freezing tube as a 100,000 cells (1 ml), which was then stored as being frozen. The cell counts described above were calculated using a hemocytometer.
After inoculating the trichoepithelial cell obtained in the step described above into a culture flask, the cell was treated with a phosphate buffer containing 0.25% trypsin and 0.02% EDTA. The reaction was quenched with 0.1% trypsin inhibitor, and then the mixture was centrifuged at 1,500 rpm for 5 minutes. The supernatant was removed, and the precipitated cell pellet was combined with a KGM medium to prepare a cell suspension.
The cell suspension in the KGM medium was inoculated to a Type I collager-coated 96-well microplate (Falcon) at 3,000 cells (0.2 ml)/well and allowed to stand for about 20 minutes at room temperature until the cell went down onto the bottom. Then, the cell was cultured for 1 day in an incubator in the presence of 5% CO2 at 37° C., whereby obtaining an intended cultured human trichoepithelial cell.
A test material and DMSO were added to a KGM medium at the final concentrations of 1.0×10^−6 mol/L and 0.1%, respectively.
Negative control: DMSO was added to a KGM medium at the final concentration of 0.1%.
Positive control: Insulin and hydrocortisone were dissolved in DMSO, which was then added to a KGM medium. The final concentrations of insulin, hydrocortisone and DMSO were 5 μg/ml, 0.5 μg/ml and 0.1%, respectively.
The KMG medium in the 96-well microplate employed for preparing the cultured human trichoepithelial cell in Step A described above was exchanged with a test material-supplemented medium or a control medium (200 μl/well), and the incubation was continued for 2 days in the presence of 5% CO2 at 37° C. […]

[5] = test system: telogen hair roots of male subjects; assay: Trichogram test; format: in vivo, human; conditions: 50 nM in 70% ethanol, 2 ml twice a day on scalp for 6 months, 10 male subjects
Method: As test materials, Compound 1 and Compound 2 were employed. Each test material was dissolved in 70% ethanol similarly to Experiment 1 to obtain a sample (test material concentration: 50 nM).
The hair roots of hairs pulled out before and after the use of each sample were examined by a microscope to determine the telogen hair root count on the basis of the hair root morphology, and the increase or decrease in the rate was employed as an index for evaluating the hair growth promoting effect.
Specifically, each sample was applied onto the scalp of each of 10 male subjects twice a day in a 2 ml aliquot each time continuously for 6 months. 100 hairs per subject were pulled out immediately before the application and immediately after completion of 6-month application to count the telogen hair roots. The rate (%) of the number of the subjects whose telogen hair root after the application was decreased by 20% or more, changed by ±20% or increased by 20% or more with respect to that before the application was calculated.

Row | Structure (SMILES) | Hair regrowth area rate ([1]; 50 nM in 70% ethanol) [%] | Hair regrowth area rate ([1]; 100 nM in 70% ethanol) [%] | activity at 10 µM [2] [%] | activity at 100 µM [2] [%] | Mean of hair shaft elongation [3] [mm] | Cell growth promoting index [4] | Rate of telogen hair root: 20% or more decrease (rate of subjects) [5] [%] | Rate of telogen hair root: 20% or more increse (rate of subjects) [5] [%] | Rate of telogen hair root: ±20% (rate of subjects) [5] [%]
1 | CCCCCCCCCCCCCCCCOC(CO)COC (stereo not shown) [Compound 1, 2-Hexadecyloxy-3-methoxy-1-propanol] | 70 | 93 | 139 | 157 | 1.7 | 1.3 | 70 | 0 | 30
2 | CCCCCCCCCCCCCCCCOCC(O)COC (stereo not shown) [Compound 2, 1-Hexadecyloxy-3-methoxy-2-propanol] | 65 | 88 | 108 | 122 | 1.5 | 1.5 | 60 | 10 | 30
3 | CCCCCCCCCCCCCCCCOCCCO [Compound 3, 3-Hexadecyloxy-1-propanol] | 15 | 74 | 106 | 108 | 1.6 | 1.4 |  |  | 
4 | CCCCCCCCCCCCCCCCOCC(COC)OC (stereo not shown) [Compound 4, 1-(2,3-Dimethoxypropoxy)hexadecane] | 68 | 78 | 127 | 134 | 1.9 | 1.4 |  |  | 
5 | CCCCCCCCCCCCCCCCCCC(CO)OC (stereo not shown) [Compound 5, 2-Methoxy-1-eicosanol] | 70 | 76 | 124 | 130 | 1.4 | 1.2 |  |  | 
6 | CCCCCCCCCCCCCCCCCC(=O)OCC(CO)OC (stereo not shown) [Compound 6, 3-Hydroxy-2-methoxypropyl stearate] |  |  | 101 | 102 | 1.7 | 1.3 |  |  | 
7 | CCCCCCCCCCCCCCCCOC(CO)CO [Compound 7, 2-Hexadecyloxy-1,3-propanediol] |  |  | 122 | 129 | 1.2 | 1.5 |  |  | 
8 | CCCCCCCCCCCCCCCCCCOCC(C)(C)CO [Compound 8, 2,2-Dimethyl-3-octadecyloxy-1-propanol] |  |  | 106 | 112 | 1.7 | 1.2 |  |  | 
9 | CCCCCCCCCCCCCCCCCCC(O)CO (stereo not shown) [Compound 9, 1,2-eicosanediol] |  |  | 130 | 132 | 1.5 | 1.2 |  |  | 
